# From patent publication US4824868A, “Propylamine derivatives useful for the treatment of dementia” (Ciba-Geigy Corporation, priority 1987, dated 1989)
# Counter-ions that a name gives are not always drawn.
# Key:
# [1] = system: norepinephrine (NE) uptake, rat whole brain synaptosomes; test: Inhibition of tritiated norepinephrine uptake into synaptosomes from rat whole brain in vitro; format: biochemical; conditions: 3H-NE
# Method: (§1) Compounds of the previous examples are tested for their ability to block the uptake of tritiated serotonin into synaptosomal nerve endings from rat whole brain in vitro essentially by the method of Thornburg and Moore as described in Res. Comm. Chem. Pathol. Pharmacol. 5, 81 (1973). The preincubation period of the test compound (added in ethanol solution) with the whole brain synaptosome suspension in Krebs buffer is 5 minutes. The incubation period, following the addition of tritiated serotonin (^3 H-5-HT) to a final concentration of about 1×10^-7 M, is 4 minutes. The concentration of test agent required to inhibit serotonin uptake by 50% of control value i.e. the IC50, is determined graphically and expressed in micromolar concentration.
# The concentration of test agent required to inhibit norepinephrine (NE) uptake by 50% of the control value, i.e., the IC50 is similarly determined using tritiated norepinephrine (^3 H-NE) and is also expressed in micromolar concentration.
# [2] = system: serotonin (5-HT) uptake, rat whole brain synaptosomes; test: Inhibition of tritiated serotonin uptake into synaptosomes from rat whole brain in vitro; format: biochemical; conditions: for IC50: rat whole brain synaptosomes, 3H-5-HT about 1×10^-7 M, 5 min preincubation, 4 min incubation
# Method: as §1
# serotonin (5-HT) uptake = test: Serotonin (5-HT) uptake inhibition in rats pretreated with compounds; format: in vivo, rat
# Method: Serotonin (5-HT) uptake inhibition is also determined in rats pretreated with compounds of the instant invention.
# [3] = system: reserpine treated rabbits; test: Reversal of reserpine-induced ptosis in the rabbit; format: in vivo; conditions: reserpine 2 mg/kg i.v. 90 minutes before i.v. infusion of 0.2% drug solution
# Method: The serotonin uptake inhibiting or serotonin activating properties of the compounds of the invention are indicative of antidepressant properties as determined by the reversal of reserpine-induced ptosis (i.e. […]) in the rabbit. Rabbits are injected intravenously with 2 mg/kg reserpine 90 minutes before the i.v. infusion of 0.2% drug solution into the ear vein according to the method of J. Mizoule et al. (J. Pharmacol., 8, 3, 269-285, 1977). The complete opening of the eye-lids is taken as a criterion for reversal of the reserpine-induced ptosis. The results are expressed in terms of the mean dose of test compound inducing complete opening of the eye-lids in reserpine treated rabbits.
# [4] = system: norepinephrine (NE) uptake, rat midbrain synaptosomes; test: Inhibition of 3H-NE uptake in rat midbrain synaptosomes in vitro; format: biochemical; conditions: rat midbrain-diencephalon synaptosomes; NE 1×10^-8 M; 20 minutes
# Method: The inhibition of norepinephrine (NE) uptake is determined in rat midbrain synaptosomes in vitro as follows:
# Synaptosomes from the rat midbrain-diencephalon region are prepared and the uptake of ^3 H-NE is measured as described by Baumann and Maitre, Naunyn-Schmiedeberg's Arch. Pharmacol. 300, 31 (1977). The concenrtration of NE in the incubation medium is 1×10^-8 M, and the incubation period is 20 minutes. The concentration required to inhibit norepinephrine uptake by 50%, i.e. the IC50, is determined.
# [5] = system: serotonin (5-HT) uptake, rat midbrain synaptosomes; test: Inhibition of 3H-5-HT uptake in rat midbrain synaptosomes in vitro; format: biochemical; conditions: rat midbrain-diencephalon synaptosomes; 5-HT 2.5×10^-9 M; 10 minutes
# Method: The inhibition of serotonin (5-HT) uptake indicative of potential antidepressant activity is determined in rat midbrain synaptosomes in vitro as follows:
# Synaptosomes from the rat midbrain-diencephalon region are prepared and the uptake of ^3 H-5-HT measured as described by Baumann and Maitre, Naunyn-Schmiedeberg's Arch. Pharmacol. 300, 31 (1977). The concentration of 5-HT in the incubation medium is 2.5×10^-9 M, and the incubation period is 10 minutes. The concentration of a compound of this invention required to inhibit serotonin uptake by 50%, i.e. the IC50, is determined.
# serotonin uptake = test: H 75/12 test: inhibition of the serotonin depleting effect of H 75/12 in rat brain; format: in vivo; conditions: for ED50: oral, 30 minutes before H 75/12 (25 mg/kg s.c.), 4 hours
# Method: The inhibition of the serotonin depleting effect of 3-hydroxy-4-methyl-α-ethylphenethylamine (H 75/12) in rat brain serves as an indirect indication of serotonin uptake inhibitory activity. (Carlsson, Corrodi, Fuxe and Hoekfelt, Europ. J. Pharmacol. 5, 357, 1969). A diminution of serotonin release by H 75/12 is considered to be due to a serotonin uptake inhibitory effect of the test compound. The compound to be tested is administered orally 30 minutes before H 75/12 (25 mg/kg s.c.) and the animals are decapitated 4 hours thereafter. The brains are immdiately taken out and serotonin is determined as described above. The ED50 represents the dose of the test compound inhibiting the serotonin-depleting effect of H75/12 by 50%.
Compound,IC50 [1] [nM],IC50 [2] [nM],further results
COc1cccc(OCC(Cc2ccccc2)CN(C)C)c1 (centres unmarked) [3/1],4300,430,
"CSc1ccc(OCC(Cc2ccccc2)CN(C)C)cc1.O=C(O)C(=O)O (centres unmarked) [3/2, N,N-dimethyl-2-benzyl-3-(4-methylmercaptophenoxy)-propylamine oxalate]",10800,270,inhibition of 3H-5HT uptake (serotonin (5-HT) uptake; 30 mg/kg p.o.): about 80%; mean dose inducing complete opening of the eye-lids [3]: about 7.7 mg/kg i.v.; IC50 [4]: ~500 nM; IC50 [5]: ~30 nM; ED50 (serotonin uptake): ~2.3 mg/kg
CN(C)CC(COc1ccccc1Cl)Cc1ccccc1 (centres unmarked) [3/3],5300,1300,
CN(C)CC(COc1ccc(Cl)cc1)Cc1ccccc1 (centres unmarked) [3/4],12000,1490,
COc1ccc(OCC(Cc2ccccc2)CN2CCCCC2)cc1 (centres unmarked) [3/5],39500,6100,
CN(C)CC(COc1cccc(Cl)c1)Cc1ccccc1 (centres unmarked) [3/6],16100,2700,
Cc1ccc(OCC(Cc2ccccc2)CN(C)C)cc1 (centres unmarked) [3/7],12500,1220,
Cc1cccc(OCC(Cc2ccccc2)CN(C)C)c1 (centres unmarked) [3/8],3250,1250,
COc1ccc(SCC(Cc2ccccc2)CN(C)C)cc1 (centres unmarked) [3/9],8100,1530,
CN(C)CC(COc1cccc(C(F)(F)F)c1)Cc1ccccc1 (centres unmarked) [3/10],6900,2250,
COc1cccc(SCC(Cc2ccccc2)CN(C)C)c1 (centres unmarked) [3/11],7600,1950,
COc1cc(OC)cc(OCC(Cc2ccccc2)CN(C)C)c1 (centres unmarked) [3/12],4300,1520,
C=CCOc1cccc(OCC(Cc2ccccc2)CN(C)C)c1 (centres unmarked) [3/13],1440,590,
CSc1ccc(OCC(Cc2ccc(Cl)cc2)CN(C)C)cc1 (centres unmarked) [3/14],7100,670,
CN(C)CC(COc1ccc(C(F)(F)F)cc1)Cc1cccc(Cl)c1 (centres unmarked) [3/15],32000,6000,
COc1ccc(OCC(Cc2ccccc2)CN(C)C)cc1 (centres unmarked) [3/16],570,560,
CNCC(COc1ccc(OC)cc1)Cc1ccccc1 (centres unmarked) [6/1],1250,440,
"CNCC(COc1ccc(SC)cc1)Cc1ccccc1 (centres unmarked) [6/2, N-methyl-2-benzyl-3-(4-methylthiophenoxy)propylamine]",2500,140,
CNCC(COc1ccc(SC)cc1)Cc1cccc(Cl)c1 (centres unmarked) [6/3],11000,2700,
"CN(C)CC(COc1ccc(C(F)(F)F)cc1)Cc1ccccc1.O=C(O)C(=O)O (centres unmarked) [Example 1, N,N-dimethyl-2-benzyl-3-(4-trifluoromethylphenoxy)propylamine oxalate]",15200,490,inhibition of 3H-5HT uptake (serotonin (5-HT) uptake; 30 mg/kg p.o.): ~60%; mean dose inducing complete opening of the eye-lids [3]: ~12.6 mg/kg i.v.; IC50 [4]: ~3000 nM; IC50 [5]: ~15 nM; ED50 (serotonin uptake): ~4.5 mg/kg
"CSc1ccc(OCC(Cc2cccc(Cl)c2)CN(C)C)cc1.O=C(O)C(=O)O (centres unmarked) [Example 2, N,N-dimethyl-2-(3-chlorobenzyl)-3-(4-methylmercaptophenoxy)propylamine oxalate]",5000,30,ED50 (serotonin uptake): ~1.4 mg/kg
"CNCC(COc1ccc(C(F)(F)F)cc1)Cc1ccccc1 (centres unmarked) [Example 4, N-methyl-2-benzyl-3-(4-trifluoromethylphenoxy)propylamine hydrochloride]",12600,390,
"CNCC(COc1cccc(OC)c1)Cc1ccccc1 (centres unmarked) [Example 5, N-methyl-2-benzyl-3-(3-methoxyphenoxy)propylamine oxalate]",1390,940,
"CNCC(COc1ccccc1OC)Cc1ccccc1 (centres unmarked) [Example 8, N-methyl-2-benzyl-3-(2-methoxyphenoxy)propylamine oxalate]",8900,5400,
"CCN(CC)CC(COc1ccccc1)Cc1ccccc1.Cl (centres unmarked) [Example 16, N,N-diethyl-2-benzyl-3-phenoxypropylamine hydrochloride, reference compound]",3300,7300,"selectivity (serotonin vs norepinephrine uptake) in in vitro tests ([2]; in vitro, whole brain and midbrain synaptosomes, in words): no selectivity is seen in in vitro tests; IC50 [4]: 2000 nM; IC50 [5]: 2200 nM; inhibition of the serotonin-depleting effect of H 75/12 (serotonin uptake; 30 mg/Kg p.o.): 17%; in vivo serotonin uptake inhibitory activity (serotonin uptake; 30 mg/Kg p.o., in words): no significant in vivo serotonin uptake inhibitory activity"
CNCC(COc1ccc(C(F)(F)F)cc1)Cc1ccccc1.O=C(O)C(=O)O (centres unmarked) [N-methyl-2-benzyl-3-(4-trifluoromethylphenoxy)-propylamine oxalate],,,inhibition of 3H-5HT uptake (serotonin (5-HT) uptake; 10 mg/kg p.o.): ~50%; mean dose inducing complete opening of the eye-lids [3]: ~12.9 mg/kg i.v.; IC50 [4]: ~2000 nM; IC50 [5]: ~10 nM; ED50 (serotonin uptake): ~1.8 mg/kg
